Data published in patent US12630498B2 (Genzyme Corporation, priority 2019, dated 2026).

Assays:
[1] = target: T1, CFTR-mediated transepithelial chloride transport in primary human bronchial epithelial cells from a ΔF508 homozygous CF donor (Homo sapiens, UniProt P13569, DEL508-508); test: TECC24 recording of CFTR-mediated transepithelial chloride transport in CF-HBE cells (AUC fold over DMSO); type: cell-based; settings: test agent 10 μM, 48 hours incubation, AUC of forskolin-stimulated IEQ relative to DMSO
T1 construct: Primary human bronchial epithelial cells from a ΔF508 homozygous CF donor; host or cells: primary CF-HBE cells, ΔF508 homozygous donor
T1 sequence (P13569 with tags, fused parts or gaps DEL508-508): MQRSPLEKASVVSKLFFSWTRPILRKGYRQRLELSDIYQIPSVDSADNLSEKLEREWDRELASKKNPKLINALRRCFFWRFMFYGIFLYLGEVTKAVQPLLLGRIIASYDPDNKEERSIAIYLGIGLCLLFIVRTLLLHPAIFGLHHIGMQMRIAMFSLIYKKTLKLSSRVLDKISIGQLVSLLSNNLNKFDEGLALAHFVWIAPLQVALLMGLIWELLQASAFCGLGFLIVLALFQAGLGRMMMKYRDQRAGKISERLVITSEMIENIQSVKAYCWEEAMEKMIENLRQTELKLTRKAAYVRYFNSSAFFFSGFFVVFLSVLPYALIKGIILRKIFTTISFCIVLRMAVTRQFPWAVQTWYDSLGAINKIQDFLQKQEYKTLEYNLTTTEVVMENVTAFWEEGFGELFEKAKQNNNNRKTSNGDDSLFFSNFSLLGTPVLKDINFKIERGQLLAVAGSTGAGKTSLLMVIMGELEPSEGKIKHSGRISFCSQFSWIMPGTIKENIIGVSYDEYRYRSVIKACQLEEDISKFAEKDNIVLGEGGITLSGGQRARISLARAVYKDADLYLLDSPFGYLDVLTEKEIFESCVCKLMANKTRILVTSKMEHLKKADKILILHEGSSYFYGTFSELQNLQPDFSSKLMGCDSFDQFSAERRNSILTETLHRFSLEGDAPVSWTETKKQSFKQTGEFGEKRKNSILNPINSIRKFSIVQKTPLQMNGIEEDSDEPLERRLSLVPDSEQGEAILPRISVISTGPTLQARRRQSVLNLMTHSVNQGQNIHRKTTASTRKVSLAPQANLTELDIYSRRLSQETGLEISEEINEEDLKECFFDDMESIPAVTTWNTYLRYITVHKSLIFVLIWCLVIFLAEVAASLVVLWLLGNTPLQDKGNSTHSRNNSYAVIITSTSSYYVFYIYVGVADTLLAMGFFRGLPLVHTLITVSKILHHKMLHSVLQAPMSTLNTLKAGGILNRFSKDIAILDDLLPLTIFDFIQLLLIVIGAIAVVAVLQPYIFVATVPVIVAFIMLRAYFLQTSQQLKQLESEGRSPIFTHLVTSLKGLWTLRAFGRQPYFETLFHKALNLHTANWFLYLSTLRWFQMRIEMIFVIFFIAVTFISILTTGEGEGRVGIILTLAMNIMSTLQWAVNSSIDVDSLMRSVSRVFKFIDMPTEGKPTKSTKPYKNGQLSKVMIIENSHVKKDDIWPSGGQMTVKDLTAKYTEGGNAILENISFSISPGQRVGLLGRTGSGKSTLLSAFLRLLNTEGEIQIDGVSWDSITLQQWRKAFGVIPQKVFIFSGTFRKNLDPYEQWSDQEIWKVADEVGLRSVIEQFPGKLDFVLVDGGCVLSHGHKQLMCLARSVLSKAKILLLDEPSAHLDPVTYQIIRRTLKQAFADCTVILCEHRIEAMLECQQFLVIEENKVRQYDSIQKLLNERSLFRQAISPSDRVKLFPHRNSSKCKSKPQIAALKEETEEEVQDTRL
Outline: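 Primary ΔF508/ΔF508 CF-HBE cells on inserts exposed to test agent in IL-13-containing medium for 48 h at 36.5 °C. Current-clamp VT/TEER recording in pH 7.4 HEPES saline with benzamil 10 μM, forskolin 10 μM, then CFTRinh-172 20 μM. AUC of equivalent Cl⁻ current between forskolin and inhibitor, expressed as ratio over vehicle.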

[2] = target: T2, human Cystic Fibrosis Transmembrane Conductance Regulator (CFTR) harboring the ΔF508 mutation (Homo sapiens, UniProt P13569, DEL508-508); test: H441 cell ΔF508-CFTR-HRP cell surface assay (Emax and EC50); type: cell-based; settings: for Emax: NCI-H441, NA = Not active
T2 construct: expressed in transfected cells; host or cells: H441 carcinoma line (G418-selected)
T2 sequence (P13569 with tags, fused parts or gaps DEL508-508): as above
Outline: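 H441 and 41o- bronchial epithelial cells expressing ΔF508-CFTR with an extracellular-loop-4 HRP tag were treated with a 15-point compound series (24.5–0.001 μM) for two nights, H441 at 27° C, 41o- at 37° C with 0.0005 mg/ml doxycycline. Surface HRP luminescence read; % of maximum VX809 signal and EC50 derived.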

Row | TECC24 AUC fold over DMSO @10 μM [1] | EC50 [2] [µM] | Emax [2] [%] | Compound
1 | C (“C” refers to AUC @10 uM <4) | 2.2 | 86.9 | O=C(N[C@H](C(=O)O)c1cccc2ccccc12)c1ccc2ccccc2c1OCc1ccc(C(F)(F)F)cc1 [Example 142, (S)-2-(naphthalen-1-yl)-2-(1-((4-(trifluoromethyl)benzyl)oxy)-2-naphthamido)acetic Acid]
2 | C (“C” refers to AUC @10 uM <4) | 0.6 | 81.1 | CC(C)(C)[C@@H](NC(=O)c1ccc2ccc(C(F)(F)F)cc2c1OCc1ccc(C(F)(F)F)cc1)C(=O)O [Example 307, (R)-3,3-dimethyl-2-(7-(trifluoromethyl)-1-((4-(trifluoromethyl)benzyl)oxy)-2-naphthamido)butanoic Acid]
3 | C (“C” refers to AUC @10 uM <4) | 0.7 | 64.7 | CC(C)(S[C@@H]1C[C@@H]2CC[C@H]1C2)[C@H](NC(=O)c1ccc2cc(F)ccc2c1OCc1ccc(SC(F)(F)F)cc1)C(=O)O [Example 177, (R)-3-(((1S,2R,4R)-bicyclo[2.2.1]heptan-2-yl)thio)-2-(6-fluoro-1-((4-((trifluoromethyl)thio)benzyl)oxy)-2-naphthamido)-3-methylbutanoic Acid]
4 | A (“A” refers to AUC @10 uM >6) | 0.2 | 232 | CC1([C@H](NC(=O)c2ccc3ccc(Cl)cc3c2OCc2ccc(C(F)(F)F)cc2)C(=O)O)CCC1 [Example 300, (S)-2-(7-chloro-1-((4-(trifluoromethyl)benzyl)oxy)-2-naphthamido)-2-(1-methylcyclobutyl)acetic Acid]
5 | C (“C” refers to AUC @10 uM <4) | 0.5 | 287 | CC(C)(C)[C@H](NC(=O)c1ccc2ccccc2c1OCc1ccc(C(F)(F)F)c(F)c1)C(=O)O [Example 25, (S)-2-(1-((3-fluoro-4-(trifluoromethyl)benzyl)oxy)-2-naphthamido)-3,3-dimethylbutanoic Acid]

Further lines, the compound ahead of its results:

Row | Compound | TECC24 AUC fold over DMSO @10 μM [1] | EC50 [2] [µM] | Emax [2] [%]
6 | C[C@@H](OCc1ccccc1)C(NC(=O)c1ccc2ccccc2c1OCC1CCCCC1)C(=O)O (stereo partly drawn) [Example 150, (3R)-3-(benzyloxy)-2-(1-(cyclohexylmethoxy)-2-naphthamido)butanoic Acid] | C (“C” refers to AUC @10 uM <4) | 10.9 | 82.5
7 | CC(C)(C)C[C@H](NC(=O)c1ccc2cc(F)ccc2c1OCc1nc2ccccc2s1)C(=O)O [Example 218, (S)-2-(1-(benzo[d]thiazol-2-ylmethoxy)-6-fluoro-2-naphthamido)-4,4-dimethylpentanoic Acid] | C (“C” refers to AUC @10 uM <4) | 4.8 | 86.8
8 | O=C(N[C@H](C(=O)O)C1CCCC1)c1ccc2ccccc2c1OCc1ccc(S(F)(F)(F)(F)F)cc1 [Example 111, (S)-2-cyclopentyl-2-(1-((4-(pentafluoro-16-sulfanyl)benzyl)oxy)-2-naphthamido)acetic Acid] | B (“B” refers to AUC @10 uM between 4-6) | 2.3 | 93.1
9 | CC1(C(NC(=O)c2ccc3ccccc3c2OCc2ccc(S(F)(F)(F)(F)F)cc2)C(=O)O)CC1 (stereo not drawn) [Example 68, 2-(1-methylcyclopropyl)-2-(1-((4-(pentafluoro-l6-sulfanyl)benzyl)oxy)-2-naphthamido)acetic Acid] | C (“C” refers to AUC @10 uM <4) | 1.9 | 104
10 | O=C(N[C@H](C(=O)O)C1CCCC1)c1ccc2ccccc2c1OCc1ccc(SC(F)(F)F)cc1 [Example 114, (S)-2-cyclopentyl-2-(1-((4-((trifluoromethyl)thio)benzyl)oxy)-2-naphthamido)acetic Acid] | C (“C” refers to AUC @10 uM <4) | 2.6 | 86.1
